Results published in the supplement of paper PMC8882468.
± gives the standard deviation of the averaged measurements.

Legend:
Assay in all cases: CTG-3D luminescence at 96 h relative to day-0 seeding control (ratio to day 0); higher = more growth / less cytotoxicity
HCI-027 = system: HCI-027 (organoid from a triple-negative breast cancer xenograft)
Procedure: (§1)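 PDX-derived breast cancer organoids (PDxO) in 384-well Matrigel plates, 8-point dose (0.000000625-100 uM), 96 h at 37 C; CellTiter-Glo 3D luminescence normalised to the day-0 seeding control (mean of 4 technical replicates over mean of 4 day-0 wells).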

HCI-015 = system: HCI-015 (organoid from a triple-negative breast cancer xenograft)
Procedure: as §1

MDA-MB-231 = system: MDA-MB-231
Procedure: as §1

HCI-008 = system: HCI-008 (organoid from a HER2-enriched breast cancer xenograft)
Procedure: as §1

HCI-019 = system: HCI-019 (organoid from a triple-negative breast cancer xenograft)
Procedure: as §1

HCI-023 = system: HCI-023 (organoid from a triple-negative breast cancer xenograft)
Procedure: as §1

O=c1[nH]cc(F)c(=O)[nH]1 [5-fluorouracil]
CTG-3D luminescence at 96 h
Details | 12.5 pM | 0.00025 µM | 0.005 µM | 0.1 µM | 1 µM | 10 µM | 100 µM | 625 fM
HCI-008, days in culture: 228 | 1.95 ± 0.28 | 2.08 ± 0.21 | 1.74 ± 0.25 | 1.52 ± 0.27 | 1.51 ± 0.32 | 1.51 ± 0.029 | 0.917 ± 0.042 | 1.88 ± 0.097
HCI-008, days in culture: 244 | 1.38 | 1.81 | 2.06 | 1.88 | 1.6 | 1.53 | 1.03 | 2.2
HCI-015, days in culture: 172 | 2.81 | 2 | 2.42 | 1.81 | 1.61 | 1.12 | 1.03 | 2.72
HCI-015, days in culture: 191 | 2.43 | 1.43 | 1.71 | 0.853 | 1.35 | 0.995 | 0.865 | 1.37
HCI-015, days in culture: 218 | 1.85 | 1.55 | 1.83 | 1.77 | 1.51 | 1.54 | 0.999 | 1.81
HCI-019, days in culture: 110 | 2.01 | 1.66 | 1.28 | 2.55 | 1.05 | 2.15 | 1.45 | 2.02
HCI-019, days in culture: 131 | 2.46 | 3.61 | 3.38 | 4.08 | 2.65 | 2.93 | 1.89 | 3.71
HCI-019, days in culture: 152 | 2.48 | 2.79 | 2.59 | 1.85 | 1.99 | 2.54 | 1.96 | 2.62
HCI-023, days in culture: 111 | 1.56 | 1.34 | 0.973 | 1.17 | 0.928 | 0.875 | 0.571 | 1.57
HCI-023, days in culture: 128 | 1.51 ± 0.11 | 1.68 ± 0.4 | 1.54 ± 0.13 | 1.89 ± 0.27 | 1.4 ± 0.022 | 1.92 ± 0.27 | 1.01 ± 0.18 | 1.58 ± 0.063
HCI-027, days in culture: 176 | 2.05 | 1.56 | 2.56 | 1.65 | 2.29 | 0.753 | 0.527 | 1.98
HCI-027, days in culture: 194 | 1.69 | 1.22 | 1.34 | 1.6 | 1.41 | 1.29 | 0.526 | 1.51
HCI-027, days in culture: 201 | 1.96 | 1.99 | 2.23 | 1.8 | 1.26 | 1.05 | 0.398 | 1.53

MDA-MB-231
Details | CTG-3D luminescence at 96 h
12.5 pM | 4.33 ± 1.4
0.00025 µM | 4.19 ± 1.4
0.005 µM | 4.49 ± 1.5
0.1 µM | 4.31 ± 1.3
1 µM | 4.4 ± 1.4
10 µM | 4.03 ± 1.1
100 µM | 3.35 ± 0.75
625 fM | 4.34 ± 1.3
